# Measured values: patent US11117900B2 (Vertex Pharmaceuticals Incorporated, priority 2012, dated 2021)
# System: HCT116 colorectal cancer cells
# Assay: Cisplatin sensitization assay (96 h MTS cell viability);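 also: compound concentration needed to lower the IC50 of Cisplatin alone by a set fold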
# Assay type: cell-based
# Conditions: Cisplatin sensitization value
# Outline: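 The MTS viability read, after 1 h with reagent, followed 96 h of co-treatment at 37° C. in 5% CO2. Both compound and cisplatin were titrated 2-fold from a 10 μM top final concentration in a complete concentration matrix on HCT116 cells. Scores +++/++/+ reflect cisplatin sensitization value ranges.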
row,Structure (SMILES),Cisplatin Sensitization Assay
1,"Cc1cncc(NC(=O)c2c(N)nn3cc(F)cnc23)c1N1CCC(C(=O)N2CCN(C)CC2)CC1 [I-G-55, 2-amino-6-fluoro-N-(5-methyl-4-(4-(4-methylpiperazine-1-carbonyl)piperidin-1-yl)pyridin-3-yl)pyrazolo[1,5-a]pyrimidine-3-carboxamide]",+++ (Compounds with a Cisplatin sensitization value of <0.02 μM are marked with “+++.”)
2,"Cc1cncc(NC(=O)c2c(N)nn3cc(F)cnc23)c1N1CCC(C(=O)N2CCNCC2)CC1 [I-G-56, 2-amino-6-fluoro-N-(5-methyl-4-(4-(piperazine-1-carbonyl)piperidin-1-yl)pyridin-3-yl)pyrazolo[1,5-a]pyrimidine-3-carboxamide]",+++ (Compounds with a Cisplatin sensitization value of <0.02 μM are marked with “+++.”)
3,"Nc1nn2cc(F)cnc2c1C(=O)Nc1cncc(F)c1N1CCC(C(=O)N2CC(N3CCCCC3)C2)CC1 [I-G-57, 2-amino-6-fluoro-N-(5-fluoro-4-(4-(3-(piperidin-1-yl)azetidine-1-carbonyl)piperidin-1-yl)pyridin-3-yl)pyrazolo[1,5-a]pyrimidine-3-carboxamide]",+++ (Compounds with a Cisplatin sensitization value of <0.02 μM are marked with “+++.”)
4,"Nc1nn2cc(F)cnc2c1C(=O)Nc1cncc(F)c1N1CCC(C(=O)N2CC[C@H](N3CCCC3)C2)CC1 [I-G-58, (S)—N-(4-(4-([1,3′-bipyrrolidine]-1′-carbonyl)piperidin-1-yl)-5-fluoropyridin-3-yl)-2-amino-6-fluoropyrazolo[1,5-a]pyrimidine-3-carboxamide]",+++ (Compounds with a Cisplatin sensitization value of <0.02 μM are marked with “+++.”)
5,"Nc1nn2cc(F)cnc2c1C(=O)Nc1cncc(F)c1N1CCC(C(=O)N2CCC(N3CCCC3)CC2)CC1 [I-G-59, 2-amino-6-fluoro-N-(5-fluoro-4-(4-(4-(pyrrolidin-1-yl)piperidine-1-carbonyl)piperidin-1-yl)pyridin-3-yl)pyrazolo[1,5-a]pyrimidine-3-carboxamide]",+++ (Compounds with a Cisplatin sensitization value of <0.02 μM are marked with “+++.”)
6,"Nc1nn2cc(F)cnc2c1C(=O)Nc1cncc(F)c1N1CCC(C(=O)N2CCC(N3CCCCC3)CC2)CC1 [I-G-60, N-(4-(4-([1,4′-bipiperidine]-1′-carbonyl)piperidin-1-yl)-5-fluoropyridin-3-yl)-2-amino-6-fluoropyrazolo[1,5-a]pyrimidine-3-carboxamide]",+++ (Compounds with a Cisplatin sensitization value of <0.02 μM are marked with “+++.”)
7,"C[C@H]1CN(C(=O)C2CCN(c3c(F)cncc3NC(=O)c3c(N)nn4cc(F)cnc34)CC2)CCN1 [I-G-61, (S)-2-amino-6-fluoro-N-(5-fluoro-4-(4-(3-methylpiperazine-1-carbonyl)piperidin-1-yl)pyridin-3-yl)pyrazolo[1,5-a]pyrimidine-3-carboxamide]",+++ (Compounds with a Cisplatin sensitization value of <0.02 μM are marked with “+++.”)
8,"Nc1nn2cc(F)cnc2c1C(=O)Nc1cncc(F)c1N1CCC(C(=O)N2CCNC3CC32)CC1 (stereo not drawn) [I-G-62, N-(4-(4-(2,5-diazabicyclo[4.1.0]heptane-2-carbonyl)piperidin-1-yl)-5-fluoropyridin-3-yl)-2-amino-6-fluoropyrazolo[1,5-a]pyrimidine-3-carboxamide]",+++ (Compounds with a Cisplatin sensitization value of <0.02 μM are marked with “+++.”)
9,"CC1(O)CN(C(=O)C2CCN(c3c(F)cncc3NC(=O)c3c(N)nn4cc(F)cnc34)CC2)C1 [I-G-63, 2-amino-6-fluoro-N-(5-fluoro-4-(4-(3-hydroxy-3-methylazetidine-1-carbonyl)piperidin-1-yl)pyridin-3-yl)pyrazolo[1,5-a]pyrimidine-3-carboxamide]",+++ (Compounds with a Cisplatin sensitization value of <0.02 μM are marked with “+++.”)
10,"Nc1nn2cc(F)cnc2c1C(=O)Nc1cncc(F)c1N1CCC(C(=O)N2CCC(N3CCCCC3)C2)CC1 (stereo not drawn) [I-G-64, 2-amino-6-fluoro-N-(5-fluoro-4-(4-(3-(piperidin-1-yl)pyrrolidine-1-carbonyl)piperidin-1-yl)pyridin-3-yl)pyrazolo[1,5-a]pyrimidine-3-carboxamide]",+++ (Compounds with a Cisplatin sensitization value of <0.02 μM are marked with “+++.”)
11,"CN1CCN(C(=O)C2CCN(c3c(F)cncc3NC(=O)c3c(N)nn4cc(F)cnc34)CC2)C2CC21 (stereo not drawn) [I-G-65, 2-amino-6-fluoro-N-(5-fluoro-4-(4-(5-methyl-2,5-diazabicyclo[4.1.0]heptane-2-carbonyl)piperidin-1-yl)pyridin-3-yl)pyrazolo[1,5-a]pyrimidine-3-carboxamide]",+++ (Compounds with a Cisplatin sensitization value of <0.02 μM are marked with “+++.”)
12,"Nc1nn2cc(F)cnc2c1C(=O)Nc1cncc(Cl)c1N1CCC(C(=O)N2CCN3CCC2CC3)CC1 [I-G-66, N-(4-(4-(1,4-diazabicyclo[3.2.2]nonane-4-carbonyl)piperidin-1-yl)-5-chloropyridin-3-yl)-2-amino-6-fluoropyrazolo[1,5-a]pyrimidine-3-carboxamide]",+++ (Compounds with a Cisplatin sensitization value of <0.02 μM are marked with “+++.”)
13,"Nc1nn2cc(F)cnc2c1C(=O)Nc1cncc(F)c1N1CCC(C(=O)N2CCC(N3CCC3)CC2)CC1 [I-G-68, 2-amino-N-(4-(4-(4-(azetidin-1-yl)piperidine-1-carbonyl)piperidin-1-yl)-5-fluoropyridin-3-yl)-6-fluoropyrazolo[1,5-a]pyrimidine-3-carboxamide]",+++ (Compounds with a Cisplatin sensitization value of <0.02 μM are marked with “+++.”)
14,"Nc1nn2cc(F)cnc2c1C(=O)Nc1cncc(Cl)c1N1CCC(C(=O)N2CCN3CCC2C3)CC1 (stereo not drawn) [I-G-69, N-(4-(4-(1,4-diazabicyclo[3.2.1]octane-4-carbonyl)piperidin-1-yl)-5-chloropyridin-3-yl)-2-amino-6-fluoropyrazolo[1,5-a]pyrimidine-3-carboxamide]",+++ (Compounds with a Cisplatin sensitization value of <0.02 μM are marked with “+++.”)
15,"Nc1nn2cc(F)cnc2c1C(=O)Nc1cncc(F)c1N1CCC(C(=O)N2CC3(COC3)C2)CC1 [I-G-72, N-(4-(4-(2-oxa-6-azaspiro[3.3]heptane-6-carbonyl)piperidin-1-yl)-5-fluoropyridin-3-yl)-2-amino-6-fluoropyrazolo[1,5-a]pyrimidine-3-carboxamide]",+++ (Compounds with a Cisplatin sensitization value of <0.02 μM are marked with “+++.”)
16,"Nc1nn2cc(F)cnc2c1C(=O)Nc1cncc(F)c1N1CCC(C(=O)N2CC(F)(F)C2)CC1 [I-G-73, 2-amino-N-(4-(4-(3,3-difluoroazetidine-1-carbonyl)piperidin-1-yl)-5-fluoropyridin-3-yl)-6-fluoropyrazolo[1,5-a]pyrimidine-3-carboxamide]",+++ (Compounds with a Cisplatin sensitization value of <0.02 μM are marked with “+++.”)
17,"Nc1nn2cc(F)cnc2c1C(=O)Nc1cncc(F)c1N1CCC(C(=O)N2CC(F)C2)CC1 [I-G-74, 2-amino-6-fluoro-N-(5-fluoro-4-(4-(3-fluoroazetidine-1-carbonyl)piperidin-1-yl)pyridin-3-yl)pyrazolo[1,5-a]pyrimidine-3-carboxamide]",+++ (Compounds with a Cisplatin sensitization value of <0.02 μM are marked with “+++.”)
18,"COC1(C)CN(C(=O)C2CCN(c3c(F)cncc3NC(=O)c3c(N)nn4cc(F)cnc34)CC2)C1 [I-G-75, 2-amino-6-fluoro-N-(5-fluoro-4-(4-(3-methoxy-3-methylazetidine-1-carbonyl)piperidin-1-yl)pyridin-3-yl)pyrazolo[1,5-a]pyrimidine-3-carboxamide]",+++ (Compounds with a Cisplatin sensitization value of <0.02 μM are marked with “+++.”)
19,"N#CC1CN(C(=O)C2CCN(c3c(F)cncc3NC(=O)c3c(N)nn4cc(F)cnc34)CC2)C1 [I-G-76, 2-amino-N-(4-(4-(3-cyanoazetidine-1-carbonyl)piperidin-1-yl)-5-fluoropyridin-3-yl)-6-fluoropyrazolo[1,5-a]pyrimidine-3-carboxamide]",+++ (Compounds with a Cisplatin sensitization value of <0.02 μM are marked with “+++.”)
20,"Nc1nn2cc(F)cnc2c1C(=O)Nc1cnccc1N1CCC(C(=O)N2CCC2)CC1 [I-G-77, 2-amino-N-(4-(4-(azetidine-1-carbonyl)piperidin-1-yl)pyridin-3-yl)-6-fluoropyrazolo[1,5-a]pyrimidine-3-carboxamide]",+++ (Compounds with a Cisplatin sensitization value of <0.02 μM are marked with “+++.”)
21,"COC1CN(C(=O)C2CCN(c3ccncc3NC(=O)c3c(N)nn4cc(F)cnc34)CC2)C1 [I-G-78, 2-amino-6-fluoro-N-(4-(4-(3-methoxyazetidine-1-carbonyl)piperidin-1-yl)pyridin-3-yl)pyrazolo[1,5-a]pyrimidine-3-carboxamide]",+++ (Compounds with a Cisplatin sensitization value of <0.02 μM are marked with “+++.”)
22,"COC1(C)CN(C(=O)C2CCN(c3ccncc3NC(=O)c3c(N)nn4cc(F)cnc34)CC2)C1 [I-G-79, 2-amino-6-fluoro-N-(4-(4-(3-methoxy-3-methylazetidine-1-carbonyl)piperidin-1-yl)pyridin-3-yl)pyrazolo[1,5-a]pyrimidine-3-carboxamide]",+++ (Compounds with a Cisplatin sensitization value of <0.02 μM are marked with “+++.”)
23,"Nc1nn2cc(F)cnc2c1C(=O)Nc1cnccc1N1CCC(C(=O)N2CC(F)(F)C2)CC1 [I-G-80, 2-amino-N-(4-(4-(3,3-difluoroazetidine-1-carbonyl)piperidin-1-yl)pyridin-3-yl)-6-fluoropyrazolo[1,5-a]pyrimidine-3-carboxamide]",+++ (Compounds with a Cisplatin sensitization value of <0.02 μM are marked with “+++.”)
24,"N#CC1CN(C(=O)C2CCN(c3ccncc3NC(=O)c3c(N)nn4cc(F)cnc34)CC2)C1 [I-G-81, 2-amino-N-(4-(4-(3-cyanoazetidine-1-carbonyl)piperidin-1-yl)pyridin-3-yl)-6-fluoropyrazolo[1,5-a]pyrimidine-3-carboxamide]",+++ (Compounds with a Cisplatin sensitization value of <0.02 μM are marked with “+++.”)
